Converted amounts (≈) assume the structure as drawn.
Assays:
Assay type in all cases: cell-based
Li-7 = test: Cytotoxicity, growth inhibition by methylene blue method; settings: RPMI 1640, 10% fetal calf serum, two to four days with compound; for IC50: 96 h, read-out: Cytotoxicity IC₅₀
Procedure: (§1) The cytotoxicities of NK372135A, B and C and methoxy-xanthocillin monomethyl ether (XTM) which is an analog thereof were examined. 2,000 cells of each of G361, SW1116, PC-3 and Li-7 cell strains were inoculated into a 96-well plate and incubated at 37°C under 5% CO₂ for 24 hours. An RPMI 1640 medium containing 10% of fetal calf serum was employed as a medium. After incubating for 24 hours, a test compound of a given concentration was added thereto and the incubation was further conducted for two to four days. Subsequently, the cells were counted by the methylene blue method so as to evaluate the extent of the growth inhibition.

Candida albicans [1] = test: Anti-Candida activity, growth in bouillon medium (absorbance at 595 nm); settings: Candida albicans 2 x 10³ cell/well, 30°C for 16 hours
Procedure: The anti-Candida activity of NK372135B was compared with that of methoxy-xanthocillin X dimethyl ether which is shown in The Journal of Antibiotics Vol 34 (1981) No. 12, P1556 ∼ 1561.
Candida albicans was inoculated into a 96-well plate at a density of 2 x 10³ cell/well with the use of 0.2 cc of a bouillon medium. Then a test compound of various concentrations was added thereto and the microorganism was incubated at 30°C for 16 hours. Then the absorbance of each well at 595 nm was measured and IC₅₀ was calculated from the dose response curve. […] Thus it was found out that the saturation of the double bond in methoxy-xanthocillin X dimethyl ether enhanced the anti-Candida activity.

Aspergillus oryzae = test: Antimicrobial spectrum, paper disc agar diffusion; settings: 8 mm paper disc, 100 µg/ml solution, 25°C for a day and night, read-out: Diameter of inhibition zone (mm)
Procedure: (§2) The antimicrobial spectra of the compounds of the present invention were examined.
(§3) Table 1 gives the antimicrobial spectra of NK372135A, C and D. A paper disc of 8 mm in diameter was immersed in a solution containing 100 µg/ml of NK372135A, C or D and then placed on an agar medium in which a test strain had been grown. Regarding the four strains listed in the upper part of Table 1 and Candida albicans, each culture was conducted at 37°C for a day and night, while other strains were cultured at 25°C for a day and night. Then the diameter of each inhibition zone thus formed was measured. […] Since no existing antifungal agent exerts a satisfactory effect on fungi, the compounds of the present invention are highly expected as effective antifungal agents.

Bacillus subtilis = test: Antimicrobial spectrum, paper disc agar diffusion; settings: 8 mm paper disc, 100 µg/ml solution, 37°C for a day and night, read-out: Diameter of inhibition zone (mm)
Procedure: as §2, §3

Botrytis fabae = test: Antimicrobial spectrum, paper disc agar diffusion; settings: 8 mm paper disc, 100 µg/ml solution, 25°C for a day and night, read-out: Diameter of inhibition zone (mm)
Procedure: as §2, §3

Candida albicans [2] = test: Antimicrobial spectrum, paper disc agar diffusion; settings: 8 mm paper disc, 100 µg/ml solution, 37°C for a day and night, read-out: Diameter of inhibition zone (mm)
Procedure: as §2, §3

Escherichia coli = test: Antimicrobial spectrum, paper disc agar diffusion; settings: 8 mm paper disc, 100 µg/ml solution, 37°C for a day and night, read-out: Diameter of inhibition zone (mm)
Procedure: as §2, §3

Fusarium roseum = test: Antimicrobial spectrum, paper disc agar diffusion; settings: Fusarium sambucinum, read-out: Diameter of inhibition zone (mm)
Procedure: as §2, §3

Mucor japonicus = test: Antimicrobial spectrum, paper disc agar diffusion; settings: 8 mm paper disc, 100 µg/ml solution, 25°C for a day and night, read-out: Diameter of inhibition zone (mm)
Procedure: as §2, §3

Mycobacterium smegmatis = test: Antimicrobial spectrum, paper disc agar diffusion; settings: Mycolicibacterium smegmatis, 8 mm paper disc, 100 µg/ml solution, 37°C for a day and night, read-out: Diameter of inhibition zone (mm)
Procedure: as §2, §3

Mycosphaerella melonis = test: Antimicrobial spectrum, paper disc agar diffusion; settings: 8 mm paper disc, 100 µg/ml solution, 25°C for a day and night, read-out: Diameter of inhibition zone (mm)
Procedure: as §2, §3

Saccharomyces cerevisiae = test: Antimicrobial spectrum, paper disc agar diffusion; settings: 8 mm paper disc, 100 µg/ml solution, 25°C for a day and night, read-out: Diameter of inhibition zone (mm)
Procedure: as §2, §3

Staphylococcus aureus = test: Antimicrobial spectrum, paper disc agar diffusion; settings: 8 mm paper disc, 100 µg/ml solution, 37°C for a day and night, read-out: Diameter of inhibition zone (mm)
Procedure: as §2, §3

[3] = test system: Trichophyton mentagrophytes; test: Antimicrobial spectrum, paper disc agar diffusion; settings: 8 mm paper disc, 100 µg/ml solution, 25°C for a day and night, read-out: Diameter of inhibition zone (mm)
Procedure: as §2, §3

5-lipoxygenase = biological target: T1, 5-lipoxygenase (Cavia porcellus, UniProt A0A286X958); test: 5-lipoxygenase inhibitory activity in ionophore-stimulated peritoneal cells (5-HETE by HPLC); settings: Guinea pig peritoneal cells, ionophore A 23187 + arachidonic acid
T1 construct: the peritoneal cells of the animals were collected; endogenous in cells; host or cells: casein-elicited peritoneal cells of Hartley guinea pigs
T1 sequence (A0A286X958 1-674): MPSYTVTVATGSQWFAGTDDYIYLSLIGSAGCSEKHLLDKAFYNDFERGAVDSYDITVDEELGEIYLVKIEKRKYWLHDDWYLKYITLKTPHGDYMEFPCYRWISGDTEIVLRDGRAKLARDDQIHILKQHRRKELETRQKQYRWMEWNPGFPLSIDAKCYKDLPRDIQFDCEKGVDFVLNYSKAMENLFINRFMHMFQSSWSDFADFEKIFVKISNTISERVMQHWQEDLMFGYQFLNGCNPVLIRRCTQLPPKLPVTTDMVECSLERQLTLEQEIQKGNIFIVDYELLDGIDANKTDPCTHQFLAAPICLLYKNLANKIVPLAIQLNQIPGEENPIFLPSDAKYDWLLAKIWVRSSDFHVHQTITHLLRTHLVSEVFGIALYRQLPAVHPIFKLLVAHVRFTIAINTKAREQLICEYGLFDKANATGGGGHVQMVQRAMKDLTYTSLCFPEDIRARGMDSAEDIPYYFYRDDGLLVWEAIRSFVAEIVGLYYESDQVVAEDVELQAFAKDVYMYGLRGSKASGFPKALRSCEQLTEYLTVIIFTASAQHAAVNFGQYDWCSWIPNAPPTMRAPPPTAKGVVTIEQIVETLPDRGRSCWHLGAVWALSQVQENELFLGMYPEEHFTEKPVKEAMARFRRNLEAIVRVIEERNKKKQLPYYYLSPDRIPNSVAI
Procedure: The 5-lipoxygenase inhibitory activities of the compounds of the present invention were examined.
The 5-lipoxygenase inhibitory activity was evaluated from the inhibitory activity on ionophore stimulation on Guinea pig peritoneal cells in the following manner.
A 2% casein solution was intraperitoneally administered to Hartley Guinea pigs weighing 250 to 350 g. 18 hours after the administration, the peritoneal cells of the animals were collected. The contaminating erythrocytes were hemolyzed and centrifuged. To the cell fraction thus obtained was added a 50 mM phosphate buffer solution (pH 7.0) containing […] of indomethacin and the concentration of the peritoneal cells was adjusted to 1 x 10⁷ cell/-ml. To 1.0 ml of the cell suspension thus obtained, a test compound of various concentrations was added so as to give a final concentration of 100 µM. Then the mixture was incubated at 37°C for five minutes. Next, 1.0 µg of lonophore A 23187 and 10 µg of arachidonic acid were added thereto and the reaction was initiated. After 20 minutes, the reaction was ceased by adding 4 ml of ethanol. The reaction supernatant was analyzed by HPLC in accordance with the method of Amano et al. [Vitamin, 59, 211 - 219 (1985)] so as to detect 5-hydroxyeicosatetraenoic acid (5-HETE) which was a metabolite derived from arachidonic acid.

G361 = test: Cytotoxicity, growth inhibition by methylene blue method; settings: Homo sapiens, G-361, 96 h, RPMI 1640, 10% fetal calf serum, two to four days with compound, read-out: Cytotoxicity IC₅₀
Procedure: as §1

PC-3 = test: as above; settings: Homo sapiens, 96 h, RPMI 1640, 10% fetal calf serum, two to four days with compound, read-out: Cytotoxicity IC₅₀
Procedure: as §1

SW1116 = test: as above; settings: Homo sapiens, SW 1116, 96 h, RPMI 1640, 10% fetal calf serum, two to four days with compound, read-out: Cytotoxicity IC₅₀
Procedure: as §1

| Compound | zone of inhibition at 100 µg/mL (Aspergillus oryzae) [mm] | zone of inhibition at 100 µg/mL (Bacillus subtilis) [mm] | zone of inhibition at 100 µg/mL (Botrytis fabae) [mm] | zone of inhibition at 100 µg/mL (Candida albicans [2]) [mm] | zone of inhibition at 100 µg/mL (Escherichia coli) [mm] | zone of inhibition at 100 µg/mL (Fusarium roseum) [mm] | zone of inhibition at 100 µg/mL (Mucor japonicus) [mm] | zone of inhibition at 100 µg/mL (Mycosphaerella melonis) [mm] | zone of inhibition at 100 µg/mL (Saccharomyces cerevisiae) [mm] | zone of inhibition at 100 µg/mL (Staphylococcus aureus) [mm] | zone of inhibition at 100 µg/mL [3] [mm] | Inhibition ratio (%) (5-lipoxygenase; 10⁻⁴ mol/ℓ) | Inhibition ratio (%) (5-lipoxygenase; 10⁻⁵ mol/ℓ) | Inhibition ratio (%) (5-lipoxygenase; 10⁻⁶ mol/ℓ) | IC50 (G361) [µg/mL] | IC50 (Li-7) [µg/mL] | IC50 (PC-3) [µg/mL] | IC50 (SW1116) [µg/mL] | further results |
| --- | --- | --- | --- | --- | --- | --- | --- | --- | --- | --- | --- | --- | --- | --- | --- | --- | --- | --- | --- |
| methoxy-xanthocillin monomethyl ether [XTM, reference compound] | – | – | – | – | – | – | – | – | – | – | – | – | – | – | – | – | – | – | Cytotoxicity IC₅₀ (Li-7): 0.57 µg/mL |
| [C-]#[N+]C(=C\c1ccc(OC)cc1)/C(=C/c1ccc(OC)c(OC)c1)[N+]#[C-] [methoxy-xanthocillin X dimethyl ether, reference compound] | – | – | – | – | – | – | – | – | – | – | – | – | – | – | – | – | – | – | IC₅₀ (Candida albicans [1]): 9.0 µg/mL |
| [C-]#[N+]C(=Cc1ccc(OC)cc1)C(Cc1ccc(OC)cc1)[N+]#[C-] (centres unmarked) [NK372135A] | 20 | 21.5 | 25 | 30 | 20 | 9 | 15 | 18 | 25 | 20.5 | 30 | 37.1 | 5.0 | 0 | 2.13 (≈ 6.69 µM) | 1.45 (≈ 4.55 µM) | 1.05 (≈ 3.3 µM) | 1.65 (≈ 5.18 µM) | zone of inhibition at 100 µg/mL (Mycobacterium smegmatis): 21 mm |
| [C-]#[N+]C(=Cc1ccc(OC)c(OC)c1)C(Cc1ccc(OC)cc1)[N+]#[C-] (centres unmarked) [NK372135B] | – | – | – | – | – | – | – | – | – | – | – | 33.3 | 5.0 | 0 | 2.4 (≈ 6.89 µM) | 1.8 (≈ 5.17 µM) | 0.76 (≈ 2.18 µM) | 2.55 (≈ 7.32 µM) | IC50 (Candida albicans [1]; read-out: IC₅₀): 1.5 µg/mL (≈ 4.31 µM) |
| [C-]#[N+]C(=Cc1ccc(OC)c(O)c1)C(Cc1ccc(OC)cc1)[N+]#[C-] (centres unmarked) [NK372135C] | 21 | 28 | 25 | 25 | 29 | 12 | 17 | 19 | 25 | 26 | 30 | 100 | 25.5 | 12.9 | 2.52 (≈ 7.54 µM) | 1.7 (≈ 5.08 µM) | 1.23 (≈ 3.68 µM) | 5.89 (≈ 17.6 µM) | – |
